Converted amounts (≈) assume the structure as drawn. Where two headings read alike, the source gives them in different places.
Columns and labels:
CHI Log D procedure = format: physicochemical
Solubility in PBS = format: physicochemical
Procedure, shortened: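 The PBS solution was ultracentrifuged and the supernatant analyzed by HPLC. Its peak area was divided by that of a 50 μM peptide DMSO reference injection and multiplied by 50 uM to give solubility.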

[1] = target: T1, full-length beta-Catenin (Uniprot ID P35222) (Homo sapiens, UniProt P35222); experiment: Fluorescence polarization IC50 (beta-catenin / 5FAM-TCF4 10-53 competition); format: binding
T1 construct: 10 nM full-length beta-Catenin (Uniprot ID P35222)
T1 sequence (P35222 1-781): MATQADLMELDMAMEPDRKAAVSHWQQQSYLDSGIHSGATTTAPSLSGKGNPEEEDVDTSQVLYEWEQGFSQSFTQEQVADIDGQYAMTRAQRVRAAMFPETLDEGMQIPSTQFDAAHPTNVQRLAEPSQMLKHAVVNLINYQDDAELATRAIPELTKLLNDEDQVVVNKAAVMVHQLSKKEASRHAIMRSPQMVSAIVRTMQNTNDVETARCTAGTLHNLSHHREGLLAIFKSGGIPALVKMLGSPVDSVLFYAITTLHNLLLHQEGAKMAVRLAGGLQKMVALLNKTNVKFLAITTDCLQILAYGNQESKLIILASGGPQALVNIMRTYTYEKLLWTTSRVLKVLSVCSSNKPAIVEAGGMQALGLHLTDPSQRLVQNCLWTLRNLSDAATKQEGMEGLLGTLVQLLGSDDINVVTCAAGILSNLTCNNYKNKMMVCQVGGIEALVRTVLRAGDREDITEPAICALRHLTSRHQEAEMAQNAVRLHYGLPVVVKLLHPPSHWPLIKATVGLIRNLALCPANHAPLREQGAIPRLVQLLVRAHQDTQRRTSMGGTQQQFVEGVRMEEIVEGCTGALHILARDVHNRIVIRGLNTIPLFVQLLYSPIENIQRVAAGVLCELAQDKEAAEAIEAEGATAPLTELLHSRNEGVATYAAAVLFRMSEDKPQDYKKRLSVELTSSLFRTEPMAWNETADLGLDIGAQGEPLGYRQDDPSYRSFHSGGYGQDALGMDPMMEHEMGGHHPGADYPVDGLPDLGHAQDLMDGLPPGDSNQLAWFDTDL

[2] = read-out: FP EC50, fluorescence polarization, beta-catenin
[3] = fluorescence polarization, read-out: beta-Catenin FP IC50
[4] = fluorescence polarization, beta-catenin, read-out: FP EC50
[5] = FP EC50 (nM), fluorescence polarization, beta-catenin

In the case of C[C@@H]1NC(=O)[C@H](C)NC(=O)[C@H](CN(CC(=O)O)CC(F)(F)F)NC(=O)[C@H](Cc2ccsc2)NC(=O)C2(CCCC=CCCCOC(=O)N3CC[C@@](C(=O)N[C@@H](CC(=O)O)C(=O)N[C@@H](Cc4csc5ccccc45)C(=O)N[C@@H](CCC(N)=O)C(N)=O)(C3)NC(=O)[C@H](CC(N)=O)NC(=O)[C@H](Cc3ccccc3)NC1=O)CCCC=CC[C@]1(CCCN1C(=O)CN=[N+]=[N-])C(=O)N[C@@H](CC(=O)O)C(=O)N[C@@H](CC(C)(C)C)C(=O)N2 (stereo partly drawn) [I-1056, AzAc-PL3-Asp-Npg-B5-3Thi-TfeGA-Ala-Ala-Phe-Asn-PyrS2-Asp-BztA-Gln-NH2], the “CHI Log D” value (CHI Log D procedure; pH 7.4) is reported as 1.929, the “Solubility” value (Solubility in PBS) is reported as 41 µM (≈ 84.9 µg/mL) and the IC50 [1, 2] is reported as 6490 nM.
In the case of C[C@@H]1NC(=O)[C@H](C)NC(=O)[C@H](CN(CC(=O)O)CC(F)(F)F)NC(=O)[C@H](Cc2ccsc2)NC(=O)C2(CCCC=CCCCOC(=O)N3CC[C@@](C(=O)N[C@@H](CC(=O)O)C(=O)N[C@@H](Cc4csc5ccccc45)C(=O)N[C@@H](CCC(N)=O)C(N)=O)(C3)NC(=O)[C@H](CC(N)=O)NC(=O)[C@H](Cc3ccccc3)NC1=O)CCCC=CC[C@]1(CCCN1C(=O)CN=[N+]=[N-])C(=O)N[C@@H](CC(=O)O)C(=O)N[C@@H](CC(C)(C)C)C(=O)N2 (stereo partly drawn) [I-1057, AzAc-PL3-Asp-Npg-B5-3Thi-TfeGA-Ala-Ala-Phe-Asn-PyrS2-Asp-BztA-Gln-NH2], the “CHI Log D” value (CHI Log D procedure; pH 7.4) is reported as 1.92, the “Solubility” value (Solubility in PBS) is reported as 50 µM (≈ 104 µg/mL) and the IC50 [1, 2] is reported as 6640 nM.
In the case of CC[C@H](C)[C@@H]1NC(=O)[C@H](CC(=O)O)NC(=O)[C@]2(CC=CCCCC3(CCCC=CCCCCCC[C@@](C)(C(=O)N[C@@H](Cc4ccccc4)C(=O)N[C@@H](Cc4csc5ccccc45)C(=O)N[C@@H](CCC(N)=O)C(N)=O)NC(=O)[C@H](CCC(N)=O)NC(=O)[C@H](Cc4ccccc4)NC(=O)[C@H](C)NC(=O)[C@H](C)NC(=O)[C@H](CCCNC(=N)N)NC(=O)[C@H](CC(=O)O)NC3=O)NC1=O)CCCN2C(C)=O (stereo partly drawn) [I-614, Ac-PL3-Asp-Ile-B5-Asp-Arg-Ala-Ala-Phe-Gln-S8-Phe-BztA-Gln-NH2], the “CHI Log D” value (CHI Log D procedure; pH 7.4) is reported as 2.801, the “Solubility” value (Solubility in PBS) is reported as 10 µM (≈ 19.1 µg/mL) and the IC50 [1, 3] is reported as 1140 nM. The IC50 ([1]; read-out: FP EC50) was 1140 nM.
For CC(=O)N1CCC[C@]12CC=CCCCC1(CCCC=CCCCOC(=O)N3CC[C@@](C(=O)N[C@@H](Cc4ccccc4Cl)C(=O)N[C@@H](Cc4csc5ccccc45)C(=O)N[C@H](C(N)=O)[C@@H](C)O)(C3)NC(=O)[C@H](CC(C)C)NC(=O)[C@H](Cc3ccccc3)NC(=O)[C@H](C)NC(=O)[C@H](C)NC(=O)[C@H](CC(=O)O)NC(=O)[C@H](CC(=O)O)NC1=O)NC(=O)[C@H](CC(C)(C)C)NC(=O)[C@H](CC(=O)O)NC2=O (stereo partly drawn) [I-1069, Ac-PL3-Asp-Npg-B5-Asp-Asp-Ala-Ala-Phe-Leu-PyrS2-2C1F-BztA-Thr-NH2], the “CHI Log D” value (CHI Log D procedure; pH 7.4) was 2.113, the “Solubility” value (Solubility in PBS) was 10 µM (≈ 19.2 µg/mL) and the IC50 [1, 4] was 920 nM. It also gave an IC50 ([1]; read-out: beta-Catenin FP IC50) of 920 nM.
With CC(=O)N1CCC[C@]12CC=CCCCC1(CCCC=CCCCOC(=O)N3CC[C@@](C(=O)N[C@@H](Cc4ccsc4)C(=O)N[C@@H](Cc4csc5ccccc45)C(=O)N[C@@H](CCC(N)=O)C(N)=O)(C3)NC(=O)[C@H](CC(N)=O)NC(=O)[C@H](Cc3ccccc3)NC(=O)[C@H](C)NC(=O)[C@H](C)NC(=O)[C@H](CC(=O)O)NC(=O)[C@H](CC(=O)O)NC1=O)NC(=O)[C@H](CCCCNC(=O)CN=[N+]=[N-])NC(=O)[C@H](CC(=O)O)NC2=O (stereo partly drawn) [I-880, Ac-PL3-Asp-[AzAc]Lys-B5-Asp-Asp-Ala-Ala-Phe-Asn-PyrS2-3Thi-BztA-Gln-NH2] the chromatographic logD (CHI Log D procedure; pH 7.4) was 1.72, the Solubility (Solubility in PBS) was 42 µM (≈ 84.1 µg/mL) and the IC50 [1, 5] was 6 nM.
For CC(=O)N1CCC[C@]12CC=CCCCC1(CCCC=CCCCOC(=O)N3CC[C@@](C(=O)N[C@@H](Cc4ccc5ccccc5c4)C(=O)N[C@@H](Cc4csc5ccccc45)C(=O)N[C@@H](Cc4c[nH]cn4)C(N)=O)(C3)NC(=O)[C@H](CC(N)=O)NC(=O)[C@H](Cc3ccccc3)NC(=O)[C@H](C)NC(=O)[C@H](C)NC(=O)[C@H](CC(=O)O)NC(=O)[C@H](CC(=O)O)NC1=O)NC(=O)[C@H](CC(C)(C)C)NC(=O)[C@H](CC(=O)O)NC2=O (stereo partly drawn) [I-795, Ac-PL3-Asp-Npg-B5-Asp-Asp-Ala-Ala-Phe-Asn-PyrS2-2NapA-BztA-His-NH2], the chromatographic logD (CHI Log D procedure; pH 7.4, CHI Log D) was 2.39, the “Solubility” value (Solubility in PBS) was 10 µM (≈ 19.7 µg/mL) and the IC50 ([1]; read-out: beta-Catenin FP IC50) was 176 nM.
With CC(=O)N1CCC[C@]12CC=CCCCC1(CCCC=CCCCCCC[C@@](C)(C(=O)N[C@@H](Cc3ccccc3)C(=O)N[C@@H](Cc3csc4ccccc34)C(=O)N[C@@H](Cc3c[nH]cn3)C(N)=O)NC(=O)[C@H](CC(N)=O)NC(=O)[C@H](Cc3ccccc3)NC(=O)[C@H](C)NC(=O)[C@H](C)NC(=O)[C@H](CCC(=O)O)NC(=O)[C@H](CC(=O)O)NC1=O)NC(=O)[C@H](CC1CCCCC1)NC(=O)[C@H](CC(=O)O)NC2=O (stereo partly drawn) [I-615, Ac-PL3-Asp-Cha-B5-Asp-Glu-Ala-Ala-Phe-Asn-S8-Phe-BztA-His-NH2] the chromatographic logD (CHI Log D procedure; pH 7.4, CHI Log D) was 2.83, the “Solubility” value (Solubility in PBS) was 10 µM (≈ 19.2 µg/mL) and the IC50 [1, 3] was 50 nM.
For CC(=O)N1CCC[C@]12CC=CCCCC1(CCCC=CCCCCCC[C@@](C)(C(=O)N[C@@H](Cc3ccccc3)C(=O)N[C@@H](Cc3csc4ccccc34)C(=O)N[C@H](C(N)=O)[C@@H](C)O)NC(=O)[C@H](CCC(N)=O)NC(=O)[C@H](Cc3ccccc3)NC(=O)[C@H](C)NC(=O)[C@H](C)NC(=O)[C@H](CCC(=O)O)NC(=O)[C@H](CC(=O)O)NC1=O)NC(=O)[C@H](C)NC(=O)[C@H](CC(=O)O)NC2=O (stereo partly drawn) [I-508, Ac-PL3-Asp-Ala-B5-Asp-Glu-Ala-Ala-Phe-Gln-S8-Phe-BztA-Thr-NH2], the “CHI Log D” value (CHI Log D procedure; pH 7.4) was 2.126, the “Solubility” value (Solubility in PBS) was 50 µM (≈ 90.7 µg/mL) and the IC50 [1, 3] was 73 nM. It also gave an IC50 ([1]; read-out: FP EC50) of 73 nM.
In the case of CC(=O)N1CCC[C@]12CC=CCCCC1(CCCC=CCCCOC(=O)N3CC[C@@](C(=O)N[C@@H](Cc4ccsc4)C(=O)N[C@@H](Cc4csc5ccccc45)C(=O)N[C@@H](CO)C(N)=O)(C3)NC(=O)[C@H](CC(C)C)NC(=O)[C@H](Cc3ccccc3)NC(=O)[C@H](C)NC(=O)[C@H](C)NC(=O)[C@H](Cc3cccc(C(=O)O)c3)NC(=O)[C@H](CC(=O)O)NC1=O)NC(=O)[C@H](CC(C)(C)C)NC(=O)[C@H](CC(=O)O)NC2=O (stereo partly drawn) [I-986, Ac-PL3-Asp-Npg-B5-Asp-3COOHF-Ala-Ala-Phe-Leu-PyrS2-3Thi-BztA-Ser-NH2], the “CHI Log D” value (CHI Log D procedure; pH 7.4) is reported as 1.855, the “Solubility” value (Solubility in PBS) is reported as 27 µM (≈ 52.7 µg/mL) and the IC50 [1, 4] is reported as 136 nM. The IC50 ([1]; read-out: beta-Catenin FP IC50) was 136 nM.
Compound CC[C@H](C)[C@@H]1NC(=O)[C@H](CC(=O)O)NC(=O)[C@]2(CC=CCCCC3(CCCC=CCCCCCC[C@@](C)(C(=O)N[C@@H](Cc4ccccc4)C(=O)N[C@@H](Cc4csc5ccccc45)C(=O)N[C@@H](Cc4c[nH]cn4)C(N)=O)NC(=O)[C@H](CCC(N)=O)NC(=O)[C@H](Cc4ccccc4)NC(=O)[C@H](C)NC(=O)[C@H](C)NC(=O)[C@H](CN(CC(=O)O)CC(F)(F)F)NC(=O)[C@H](CC(=O)O)NC3=O)NC1=O)CCCN2C(C)=O (stereo partly drawn) [I-500, Ac-PL3-Asp-Ile-B5-Asp-TfeGA-Ala-Ala-Phe-Gln-S8-Phe-BztA-His-NH2] has a chromatographic logD (CHI Log D procedure; pH 7.4, CHI Log D) of 2.63, a Solubility (Solubility in PBS; Solubility (uM)) of 28 µM (≈ 55.7 µg/mL) and an IC50 [1, 3] of 176 nM.
For CC(=O)N1CCC[C@]12CC=CCCCC1(CCCC=CCCCCCC[C@@](C)(C(=O)N[C@@H](Cc3ccccc3)C(=O)N[C@@H](Cc3csc4ccccc34)C(=O)N[C@@H](CCC(N)=O)C(N)=O)NC(=O)[C@H](CC(N)=O)NC(=O)[C@H](Cc3ccsc3)NC(=O)[C@H](C)NC(=O)[C@H](C)NC(=O)[C@H](CCC(=O)O)NC(=O)[C@H](CC(=O)O)NC1=O)NC(=O)[C@H](C)NC(=O)[C@H](CC(=O)O)NC2=O (stereo partly drawn) [I-449, Ac-PL3-Asp-Ala-B5-Asp-Glu-Ala-Ala-3Thi-Asn-S8-Phe-BztA-Gln-NH2], the “CHI Log D” value (CHI Log D procedure; pH 7.4) was 1.998, the “Solubility” value (Solubility in PBS) was 30 µM (≈ 55 µg/mL) and the IC50 [1, 3] was 53 nM. The IC50 ([1]; read-out: FP EC50) was 53 nM.
In the case of C[C@@H]1NC(=O)[C@H](C)NC(=O)[C@H](CN(CC(=O)O)CC(F)(F)F)NC(=O)[C@H](CC(=O)O)NC(=O)C2(CCCC=CCCCOC(=O)N3CC[C@@](C(=O)N[C@@H](Cc4ccccc4Cl)C(=O)N[C@@H](Cc4csc5ccccc45)C(=O)N[C@@H](CCC(N)=O)C(N)=O)(C3)NC(=O)[C@H]([C@@H](C)O)NC(=O)[C@H](Cc3ccccc3)NC1=O)CCCC=CC[C@]1(CCCN1C(=O)CN=[N+]=[N-])C(=O)N[C@@H](CC(=O)O)C(=O)N[C@@H](CC(C)(C)C)C(=O)N2 (stereo partly drawn) [I-1059, AzAc-PL3-Asp-Npg-B5-Asp-TfeGA-Ala-Ala-Phe-Thr-PyrS2-2C1F-BztA-Gln-NH2], the chromatographic logD (CHI Log D procedure; pH 7.4) is reported as 2.44, the Solubility (Solubility in PBS) is reported as 42 µM (≈ 87.6 µg/mL) and the IC50 [1, 5] is reported as 42 nM.
